The results in this text go back to ChEMBL document CHEMBL1123955, “Improved delivery through biological membranes. 32. Synthesis and biological activity of brain-targeted delivery systems for various estradiol derivatives” (J Med Chem, 1988).

One may read the half-life as how long it takes for the measured level to halve. Usually logP stands for the decadic logarithm of the partition coefficient of the neutral form, usually between octanol and water. Lower therefore signals a more hydrophilic compound.

“And” between values parts separate entries of the source, which are not always exact repeats. Equal entries are not always repeated.

Series [1] is described as follows: Half life in brain homogenate. Format: ADME, tissue-based.
Series [2] is described as follows: Half life in whole rat blood. Type of series: ADME.
Series [3] can be described thus: Half life in liver homogenate. Type of series: ADME, tissue-based.
The nature of series [4]: Partition coefficient (logP). As to conditions: octanol/water. Type of series: physicochemical.
Series [5] can be described thus: Rate constant in liver homogenate. Format: ADME, tissue-based. As to conditions: tissue homogenate.
Series [6] in a line: Rate constant in brain homogenate. Format: ADME, tissue-based.
For series [7], the species on record is Rattus norvegicus. As to the kind of experiment: Rate constant in whole rat blood. Type of series: ADME.
The test system of series [8] is Rattus norvegicus. Kind of series: Concentration in brain 24 hr after administration of compound 4d. Format: functional, organism-based.
Series [9] concerns Rattus norvegicus. Kind of series: Concentration in brain 3 hr after administration of compound 4d. Type of series: functional, organism-based.
Series [10] deals with Rattus norvegicus. As to the kind of experiment: Concentration in brain 0.25 hr after administration of compound 4d. Type of series: functional, organism-based.
Series [11] deals with Rattus norvegicus. As to the kind of experiment: Concentration in brain 6 hr after administration of compound 4d. Type of series: functional, organism-based.
Series [12] has as its system Rattus norvegicus. Kind of series: Concentration in blood 0.25 hr after administration of compound 4d. Type of series: functional, organism-based.
Series [13] deals with Rattus norvegicus. Kind of series: Concentration in blood 1 hr after administration of compound 4d. Format: functional, organism-based.
The subject of series [14] is Rattus norvegicus. Kind of series: Concentration in brain hr after administration of compound 4d. Format: functional, organism-based.

Regarding `CN1C=CCC(C(=O)O[C@H]2CC[C@H]3[C@@H]4CCc5cc(O)ccc5[C@H]4CC[C@]23C)=C1`, the half-life in series [1] stood at 12.9 min; in [2] it was 39.6 min; in series [3] it was 30.5 min. In series [4], this compound displayed a logP of 4.5. The results for the k (in series [5]; in [6]; in the series filed under Rattus norvegicus [7]) were 0.0283 min⁻¹, 0.0537 min⁻¹ and 0.0175 min⁻¹, respectively.
Turning to `C#C[C@]1(OC(=O)C2=CN(C)C=CC2)CC[C@H]2[C@@H]3CCc4cc(O)ccc4[C@H]3CC[C@@]21C`, the half-life in series [1] worked out at 12.4 min; in series [2] it was 49.9 min; in series [3], 24.5 min. The compound further yielded a logP in series [4] of 4.53. Moreover, the k in series [5] was 0.0227 min⁻¹; in series [6], 0.0567 min⁻¹; in the series filed under Rattus norvegicus [7] it was 0.0139 min⁻¹.
Turning to `C#C[C@]1(OC(=O)c2ccc[n+](C)c2)CC[C@H]2[C@@H]3CCc4cc(O)ccc4[C@H]3CC[C@@]21C`, the Concentration in the series on Rattus norvegicus [8] was 7.79 ng/g; with Rattus norvegicus [9], 7.35 ng/g; in the series on Rattus norvegicus [10], 7.16 ng/g; with Rattus norvegicus [11], 7.07 ng/g; with Rattus norvegicus [12] it was 0.822 ng/g; in the series with Rattus norvegicus [13], 0.552 ng/g. For the same compound, the Concentration in the series on Rattus norvegicus [14] is 7.16 ng/g and 7.35 ng/g.
